From patent US20140094424A1, “MICROBICIDAL COMPOSITIONS AND METHODS OF PRODUCTION USE THEREOF” (priority 2011, published 2014)

What was measured:
[1] = Dissolution of antibiotic in Wash NEXT reagent; type: physicochemical; details: 1% in Wash NEXT base pool
[2] = tested on: creatinine biosensor (creatinine amidohydrolase, creatinine amidinohydrolase and sarcosine oxidase); assay: Effect on enzymatic activity of a creatinine biosensor (rate of O2% decrease); type: biochemical; details: 40 mM propionate, FIG. 2
Method: In FIG. 1, the effects of various concentrations of gentamicin on the enzymatic activity of a creatinine biosensor (comprising the three enzymes creatinine amidohydrolase, creatinine amidinohydrolase and sarcosine oxidase) were determined. In FIG. 2, the effects of various concentrations of propionate on the enzymatic activity of a creatinine biosensor (comprising three enzymes) were determined.
In both instances, a decreasing rate of O2% is an indicator of enzyme activity; the faster the rate of O2% decrease, the higher enzymatic activity is.

Compound	dissolution in the Wash reagent [1]	effect on enzymatic activity of the three enzymes in the creatinine biosensor [2]
CO[C@@H]1[C@@H](OC(N)=O)[C@@H](O)[C@H](Oc2ccc3c(O)c(NC(=O)c4ccc(O)c(CC=C(C)C)c4)c(=O)oc3c2C)OC1(C)C [novobiocin]	neither antibiotic completely dissolved in the Wash reagent	–
CCC(=O)O [propionate]	–	did not substantially affect the enzymatic activity
